Experimental findings from ChEMBL document CHEMBL3632471, “Inhibitory effects of compounds from Styrax obassia on NO production” (Bioorg Med Chem Lett, 2015) are described below.

For data set [1], the system named is RAW264.7. As to the kind of experiment: Antiinflammatory activity in mouse RAW264.7 cells assessed as inhibition of LPS-induced NO production at 3 to 30 ug/ml after 24 hrs by Griess reaction. The class given is functional.
The subject of data set [2] is RAW264.7. As to the kind of experiment: Antiinflammatory activity in mouse RAW264.7 cells assessed as inhibition of LPS-induced NO production at 30 ug/ml after 24 hrs by Griess reaction. The data set is classed as functional, cell-based.
In data set [3] the test system is RAW264.7. As to the kind of experiment: Antiinflammatory activity in mouse RAW264.7 cells assessed as inhibition of LPS-induced iNOS expression after 18 hrs by Western blot analysis. The data set is classed as functional, cell-based. In general terms: A western blot detects proteins with antibodies after separation by electrophoresis.
The subject of data set [4] is RAW264.7. Nature of the data set: (§1) Cytotoxicity against mouse RAW264.7 cells assessed as cell viability at 3 to 30 ug/ml after 24 hrs by MTT assay. The note with it: raw264.7, 24 h. The class given is cell-based. In general terms: Formazan colour is commonly taken as a measure of viable cells.
The test system of data set [5] is RAW264.7. As to the kind of experiment: Antiinflammatory activity in mouse RAW264.7 cells assessed as inhibition of LPS-induced COX2 expression at 3 to 30 ug/ml after 18 hrs by Western blot analysis. The class given is functional, cell-based.
Data set [6] in a line: as §1. The data set is classed as cell-based. The note with it: RAW264.7 cells, read-out: Activity.

The source made the active and inactive calls. The calls are words filed in the database; no cut-off is given here.

In the case of `COc1cc(C(O)CCO)cc2cc(-c3ccc4c(c3)OCO4)oc12` (centres undefined), the inhibition result with RAW264.7 [1] is “inactive”.

As to `COc1cc([C@H]2OC[C@H]3[C@@H]2CO[C@H]3c2ccc(O)c(OC)c2)ccc1O` (stereo in doubt; 11), the inhibition entry in the data set with RAW264.7 [1] was “inactive”.

`COc1cc(-c2oc3c(OC)cc(CCCO)cc3c2C=O)ccc1O`: the inhibition entry in the data set on RAW264.7 [1] was “inactive”.

With `COc1ccc(-c2cc3cc(CCCO)cc(OC)c3o2)cc1OC`, the inhibition result in the data set on RAW264.7 [2] is “inactive”.

For the compound `COc1cc(C[C@H]2CO[C@H](c3ccc(O)c(OC)c3)[C@H]2CO)ccc1O`, the inhibition entry with RAW264.7 [1] was “inactive”.

As to `COc1cc([C@H]2OC[C@H]3[C@@H]2CO[C@H]3c2ccc(O)c(OC)c2)ccc1O` (stereo in doubt; 12), the inhibition entry in the data set with RAW264.7 [1] was “inactive”.

With `COc1ccc(-c2cc3cc([C@@H](O)CCO)cc(OC)c3o2)cc1OC`, the inhibition entry in the data set with RAW264.7 [2] was “inactive”. Moreover, the inhibition result with RAW264.7 [3] was “Dose-dependent effect”. In addition, the Activity entry in the data set with RAW264.7 [4] is “Non-toxic”. In the data set with RAW264.7 [5], the inhibition result was “Active”.

Turning to `COc1cc([C@H]2OC[C@H]3[C@@H]2CO[C@@H]3c2cc(OC)c(O)c(OC)c2)cc(OC)c1O`, the inhibition result with RAW264.7 [1] was “inactive”.

Turning to `COc1cc([C@@H]2OCC3C(=O)OCC32)ccc1O` (some centres undefined), the inhibition result with RAW264.7 [2] was “inactive”. Besides, the viability at 24 h in data set [6] was found to be 60%.

As for `COc1cc(CCCO)cc2cc(-c3ccc4c(c3)OCO4)oc12`, the inhibition result in the data set on RAW264.7 [1] is “inactive”.
